Results taken from US11673853B2, “Small molecule AMPK activators” (University of Pittsburgh—Of the Commonwealth System of …, priority 2016, dated 2023).

Assays:
mice [1] = experiment: Cecal ligation and puncture (CLP)-induced sepsis model; format: in vivo; settings: 10 mg/kg i.p., 24 h
Description: FIG. 6. Mice were anesthetized prior to the cecal ligation and puncture (CLP) procedure. Compound 12 (10 mg/kg) was then administered immediately afterwards through an intraperitoneal (i.p.) injection. After 24 h, mice were euthanized and blood was collected for assays of IL-6, TNF, and IL1-β levels. Peritoneal fluid was obtained for determination of bacterial counts after CLP in mice. The lungs were also lavaged with saline, harvested, and then homogenized. Lavage cytokine secretion (C-E), protein (A), cell counts (B) were measured. The data represent n=4-5 mice/group, *P<0.05 Compound 12 versus vehicle. Presence of AMPK and pAMPK was also determined (F).
Compound 12 was examined in a model of cecal ligation and puncture (CLP)-induced sepsis.

mice [2] = experiment: Pseudomonas (PA103) pneumonia model; format: in vivo; settings: 2 or 10 mg/kg i.p., PA103 i.t., 18 h
Description: FIG. 7. Compound 12 (2 or 10 mg/kg) was administered to mice though an i.p. injection, and mice were immediately challenged with P. aeruginosa (strain PA103, 1.5*10^4 cfu/mouse, i.t.) or without (control, CON) for an additional 18 h. Mice were then euthanized and lungs were lavaged with saline, harvested, and then homogenized. Lavage protein, cell counts, bacterial count and cytokine secretions (A-C) were measured. Lungs were homogenized before being assayed by immunoblotting. The data are representative of data from n=5-6 mice/group, *P<0.05 versus vehicle.
Compound 12 was tested in two pneumonia model using Pseudomonas or LPS endotoxin.

PBMC cells [3] = experiment: LPS-induced cytokine release from PBMCs (ELISA); format: cell-based
Description: (§1) FIG. 4. (A) Beas2b cells were cultured in DMEM 2% media with glucose for 24 h before switching to glucose-free media. Cells were then exposed to Compound 12 in a dose dependent manner for 18 h before being collected for immunoblotting. (B) Beas2b cells were cultured in DMEM 2% media with glucose for 24 h before Compound 12 treatment in a dose dependent manner. After 18 h, cells were then collected for immunoblotting. (C) Beas2b cells were cultured in DMEM 2% media with glucose for 24 h before switching to glucose-free media. Cells were then exposed to Compound 12 for 18 h before being collected for mRNA analysis. (D) 50K PBMC cells were cultured in 96 well plates before being exposed to Compound 12 for 4 h. Cells were then treated with LPS (10 ng/ml) for additional 2 h. Media were then collected and IL-1b concentration was determined by ELISA.
(§2) FIG. 10. (A) 50K PBMC cells were cultured in 96 well plates before being exposed to Compound 23 for 18 h. Cells were then treated with LPS (10 ng/ml) for additional 4 h. Media were then collected and TNF and IL-1b concentration were determined by ELISA. (B) PBMC cells (1 mL at 1.0×10^6/ml) were treated with Compound 23 (5 μM) for 18 h. Cells were then treated with 100 ng/ml LPS for 4 h. Cytokine release was monitored by the human cytokine array (R&D systems). The results from a cytokine array dot blot were quantitated and graphed.
(§3) A SAR study was performed by constructing analogs of Compound 1. […] Compound 12 was further tested in PBMCs. Briefly, PBMCs were treated with Compound 12 at various concentrations for 4 h before exposure to LPS (10 ng/ml) for 2 h.
(§4) Compound 23 was tested in in vitro inflammatory assays. 50K PBMC cells were cultured in 96 well plates before being exposed to Compound 23 for 18 h. Cells were then treated with LPS (10 ng/ml) for additional 4 h. Media were then collected and assayed for TNF and IL-1b. […] Cytokine arrays were used to profile which cyotokine/chemokines were regulated by Compound 23.

AMPKα1 and AMPKα2 mRNA = experiment: AMPK mRNA analysis in Beas2b cells; format: cell-based, Human; settings: glucose-free media, 18 h
Description: as §1, §3

pAMPK = pAMPK immunoblotting in Beas2B cells (Table 1); format: cell-based; settings: Homo sapiens, BEAS-2B, DMEM media without glucose, compounds 18 h
Description: Additional compounds in Table 1 were or can be prepared according to the above-described Examples. Human bronchial epithelial cells (Beas2B) were seeded in 6-well plates for 18 h. Cells were then exposed to DMEM media without glucose and compounds at various concentrations for an additional 18 h before being collected for immunoblotting.

[4] = system: High-fat diet fed C57BL6J mice; experiment: Acute oral dosing study in high-fat diet fed mice; format: in vivo
PBMC cells [5] = experiment: Cytokine array of LPS-treated PBMC cells; format: cell-based, human; settings: 5 μM 18 h, then LPS 100 ng/ml 4 h
Description: as §2, §4

Diet-induced obese mice = Diet-induced obese mice study, 14 days dosing; format: in vivo; settings: once daily for 14 days; BC1618 8 or 40 mg/kg/d
Description: FIG. 12. Diet-induced obese mice were fed a high-fat diet for 19 weeks and then injected with vehicle or drug once daily for 14 days. Daily body weights (in grams) of the mice are shown.
Diet-induced obese mice arrived from Jackson Labs and recovered two weeks in satellite housing before study. Mice were 25 weeks old and fed a high-fat diet for 19 weeks at the time of study. Body weight, fat and lean mass were measured and mice were grouped in order to match body weights at ˜46.5 g average per group prior to study. Following the acute dosing trial, mice were injected with vehicle or drug 1× daily between noon and 2 pm for 14 days (BC1618-L (low dose)=8 mg/kg/d, BC1618-H (high dose)=40 mg/kg/d). Body weight was recorded daily (FIGS. 12-15). FIG. 12 and FIG. 13 show body weight in grams and FIG. 14 and FIG. 15 show body weight as a percentage of body weight on day 0 (DO).
FIGS. 16-19 show the change (A) in body weight (BW) from day 0 to day 14 expressed as change in grams (FIG. 16 and FIG. 17) or as percent change from day 0 (FIG. 18 and FIG. 19).
Body composition was measured at DO in the body weight matched animals and again at day 14 (D14). Data in FIGS. 20-23 represent the change in fat mass from DO to D14 expressed as grams (FIG. 20 and FIG. 21) or as percent change (FIG. 22 and FIG. 23).
Data in FIGS. 24-27 represent the change in lean mass from DO to D14 expressed as grams (FIG. 24 and FIG. 25) and as percent change (FIG. 26 and FIG. 27). Overall there appears to be a modest effect of vehicle and drug to reduce lean mass over 14 days, but no differences between groups. Changes in BW over 14 days therefore reflect changes in fat mass and not lean mass.

[6] = compound 18 h, then LPS 10 ng/ml 4 h

| SMILES | CLP-induced lung injury (BAL cytokines, protein and cell counts) (mice [1]) | CLP-induced secretion of circulating proinflammatory cytokines (IL-6, TNF, IL1-β) (mice [1]) | bacterial count (mice [1]; peritoneal fluid) | lavage bacterial counts (mice [2]) | lavage cell counts (mice [2]) | lavage protein concentration (mice [2]) | lavage proinflammatory cytokines (mice [2]; dose dependent) | pAMPK levels within the lung tissue (mice [2]; immunoblotting) | LPS induced IL-1 release from PBMCs (PBMC cells [3]; compound 4 h, then LPS 10 ng/ml 2 h) | mRNA levels of both AMPKα1 and AMPKα2 (AMPKα1 and AMPKα2 mRNA) | IC50 (pAMPK) | glucose tolerance (intraperitoneal glucose tolerance test) ([4]; 1 g/kg body weight glucose, data not shown) | body weight at the time of study ([4]; two oral doses (AICAR 200 mg/kg, BC1618 20 mg/kg)) | reduction of fasting plasma glucose compared to vehicle ([4]; two oral doses (AICAR 200 mg/kg, BC1618 20 mg/kg), 2 h after second dose, P=0.08) | cytokines/chemokines regulated (cytokine array) (PBMC cells [5]) | IL-1b in media (PBMC cells [3]; [6]) | TNF in media (PBMC cells [3]; [6]) | body weight loss (daily body weight) (Diet-induced obese mice) | change in body weight from day 0 to day 14 (Diet-induced obese mice) | change in fat mass from D0 to D14 (Diet-induced obese mice) |
| --- | --- | --- | --- | --- | --- | --- | --- | --- | --- | --- | --- | --- | --- | --- | --- | --- | --- | --- | --- | --- |
| OC(COc1ccc(F)cc1)CN(Cc1ccccc1)Cc1ccccc1 (stereo not drawn) [Compound 12] | effectively reduce severities | significantly attenuated | without affecting bacterial count | without affecting lavage bacterial counts | substantially decreased | substantially decreased | effectively reduces | drastically increasing | potently inhibit | effectively decreased | < 1 µg/mL |  |  |  |  |  |  |  |  |  |
| OC(COc1ccc(C(F)(F)F)cc1)CN(Cc1ccccc1)Cc1ccccc1 (stereo not drawn) [Compound 23] |  |  |  |  |  |  |  |  |  |  | < 1 µg/mL | no difference in glucose tolerance | no differences in body weight | 25% | decreases CD40, GMCSF, IL-1b, IL-1ra, IL-2, IL-12, IL-13, ITAC and TNF | dose dependently decreased | dose dependently decreased | effect of AICAR and BC1618 on body weight loss | an effect due to AICAR or BC1618 | apparent additive effect |
